Data as given in the kinase profiling compilation of Christmann-Franck et al. (2016).

Assays:
Test in all cases: KINOMEscan competition binding
Details in all cases: compound 1.0 µM
ACVR1B (human) = ACVR1B (human) (UniProt P36896)
ACVRL1 (human) = ACVRL1 (human) (UniProt P37023)
ADCK4 (human) = ADCK4 (human) (UniProt Q96D53)
AURKC (human) = AURKC (human) (UniProt Q9UQB9)
CDK14 (human) = CDK14 (human) (UniProt O94921)
CHEK1 (human) = CHEK1 (human) (UniProt O14757)
CHUK (human) = CHUK (human) (UniProt O15111)
CSNK2A2 (human) = CSNK2A2 (human) (UniProt P19784)
Sequence of CSNK2A2 (human) (P19784 whole entry, looked up): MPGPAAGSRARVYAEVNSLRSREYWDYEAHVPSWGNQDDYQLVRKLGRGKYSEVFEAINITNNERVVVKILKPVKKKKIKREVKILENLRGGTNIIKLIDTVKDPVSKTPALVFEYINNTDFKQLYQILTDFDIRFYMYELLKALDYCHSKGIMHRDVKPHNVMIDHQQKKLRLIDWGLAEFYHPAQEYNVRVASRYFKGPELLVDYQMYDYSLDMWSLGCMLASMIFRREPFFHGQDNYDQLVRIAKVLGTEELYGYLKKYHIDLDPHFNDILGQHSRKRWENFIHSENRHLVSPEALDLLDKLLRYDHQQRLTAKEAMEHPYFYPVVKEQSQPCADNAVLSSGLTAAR

DAPK2 (human) = DAPK2 (human) (UniProt Q9UIK4)
Sequence of DAPK2 (human) (Q9UIK4 whole entry, looked up): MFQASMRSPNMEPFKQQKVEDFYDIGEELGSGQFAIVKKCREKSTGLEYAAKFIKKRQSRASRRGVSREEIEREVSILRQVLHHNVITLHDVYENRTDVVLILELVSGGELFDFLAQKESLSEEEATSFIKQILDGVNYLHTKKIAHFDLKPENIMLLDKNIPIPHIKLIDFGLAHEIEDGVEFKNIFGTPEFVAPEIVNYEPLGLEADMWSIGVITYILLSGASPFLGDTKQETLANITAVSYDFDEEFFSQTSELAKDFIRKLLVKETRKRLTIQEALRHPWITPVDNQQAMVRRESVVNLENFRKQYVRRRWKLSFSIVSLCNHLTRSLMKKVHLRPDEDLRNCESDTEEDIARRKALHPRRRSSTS

DYRK1A (human) = DYRK1A (human) (UniProt Q13627)
[1] = system: EGFR (human), P00533 [746-750 del]
[2] = system: EIF2AK4 KD2 (human), Q9P2K8 [S808G]
EPHA5 (human) = EPHA5 (human) (UniProt P54756)
EPHA8 (human) = EPHA8 (human) (UniProt P29322)
ERN1 (human) = ERN1 (human) (UniProt O75460)
[3] = system: FLT3 (human), P36888 [D835H]
GAK (human) = GAK (human) (UniProt O14976)
GRK4 (human) = GRK4 (human) (UniProt P32298)
HIPK1 (human) = HIPK1 (human) (UniProt Q86Z02)
IKBKE (human) = IKBKE (human) (UniProt Q14164)
Sequence of IKBKE (human) (Q14164 whole entry, looked up): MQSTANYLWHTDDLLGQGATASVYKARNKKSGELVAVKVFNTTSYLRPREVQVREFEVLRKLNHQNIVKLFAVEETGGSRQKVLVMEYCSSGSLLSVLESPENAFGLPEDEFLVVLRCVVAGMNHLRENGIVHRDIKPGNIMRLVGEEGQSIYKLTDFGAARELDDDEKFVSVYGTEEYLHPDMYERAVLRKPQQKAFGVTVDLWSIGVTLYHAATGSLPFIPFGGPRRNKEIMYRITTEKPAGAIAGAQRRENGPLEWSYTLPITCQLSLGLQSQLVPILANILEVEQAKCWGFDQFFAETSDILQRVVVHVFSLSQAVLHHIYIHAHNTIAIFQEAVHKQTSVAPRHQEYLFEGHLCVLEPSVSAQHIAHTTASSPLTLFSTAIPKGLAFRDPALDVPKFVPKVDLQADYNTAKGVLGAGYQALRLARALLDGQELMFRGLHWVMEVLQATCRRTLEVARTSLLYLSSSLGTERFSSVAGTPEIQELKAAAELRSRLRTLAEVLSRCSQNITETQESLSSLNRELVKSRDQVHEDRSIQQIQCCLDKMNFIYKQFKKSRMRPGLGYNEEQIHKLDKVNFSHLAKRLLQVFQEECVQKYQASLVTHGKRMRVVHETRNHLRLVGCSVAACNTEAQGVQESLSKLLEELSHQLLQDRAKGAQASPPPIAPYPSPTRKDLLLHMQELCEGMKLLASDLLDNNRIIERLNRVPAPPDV

[4] = system: KIT (human), P10721 [V559D/V654A]
MAP3K9 (human) = MAP3K9 (human) (UniProt P80192)
Sequence of MAP3K9 (human) (P80192 whole entry, looked up): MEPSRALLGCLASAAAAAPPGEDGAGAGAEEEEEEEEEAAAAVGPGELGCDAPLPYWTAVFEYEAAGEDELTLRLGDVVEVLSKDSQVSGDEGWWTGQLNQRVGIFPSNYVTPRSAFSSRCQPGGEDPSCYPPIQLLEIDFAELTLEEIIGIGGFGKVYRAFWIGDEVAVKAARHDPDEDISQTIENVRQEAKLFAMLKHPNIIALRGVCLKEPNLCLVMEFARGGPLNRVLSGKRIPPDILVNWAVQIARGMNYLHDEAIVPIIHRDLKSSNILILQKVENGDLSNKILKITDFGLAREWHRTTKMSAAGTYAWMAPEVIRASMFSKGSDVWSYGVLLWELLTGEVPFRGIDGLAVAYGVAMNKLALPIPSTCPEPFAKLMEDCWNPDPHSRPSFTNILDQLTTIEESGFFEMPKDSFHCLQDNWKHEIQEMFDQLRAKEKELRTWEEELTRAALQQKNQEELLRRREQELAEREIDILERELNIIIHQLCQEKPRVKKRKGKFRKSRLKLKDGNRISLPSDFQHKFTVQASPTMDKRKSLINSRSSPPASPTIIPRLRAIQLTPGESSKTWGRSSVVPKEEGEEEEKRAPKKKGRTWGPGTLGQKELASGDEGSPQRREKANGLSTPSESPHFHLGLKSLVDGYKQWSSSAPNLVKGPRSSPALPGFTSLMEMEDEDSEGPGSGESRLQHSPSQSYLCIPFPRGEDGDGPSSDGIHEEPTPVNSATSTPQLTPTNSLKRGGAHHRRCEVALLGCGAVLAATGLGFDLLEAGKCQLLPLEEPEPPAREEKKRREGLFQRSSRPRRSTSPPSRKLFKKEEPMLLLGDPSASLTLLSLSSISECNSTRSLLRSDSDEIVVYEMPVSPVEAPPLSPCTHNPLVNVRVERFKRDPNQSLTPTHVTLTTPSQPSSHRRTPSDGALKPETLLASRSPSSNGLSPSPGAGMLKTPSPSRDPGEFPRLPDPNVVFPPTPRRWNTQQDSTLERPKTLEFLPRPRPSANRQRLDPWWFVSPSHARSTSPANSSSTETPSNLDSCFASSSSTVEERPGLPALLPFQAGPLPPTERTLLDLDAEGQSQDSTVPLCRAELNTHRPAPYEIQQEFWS

MAP4K4 (human) = MAP4K4 (human) (UniProt O95819)
MAPK3 (human) = MAPK3 (human) (UniProt P27361)
MAPK4 (human) = MAPK4 (human) (UniProt P31152)
MAPKAPK5 (human) = MAPKAPK5 (human) (UniProt Q8IW41)
MARK3 (human) = MARK3 (human) (UniProt P27448)
MATK (human) = MATK (human) (UniProt P42679)
MET (human) = MET (human) (UniProt P08581)
[5] = system: MET (human), P08581 [Y1235D]
MKNK1 (human) = MKNK1 (human) (UniProt Q9BUB5)
PIM2 (human) = PIM2 (human) (UniProt Q9P1W9)
PKMYT1 (human) = PKMYT1 (human) (UniProt Q99640)
PRKG2 (human) = PRKG2 (human) (UniProt Q13237)
Sequence of PRKG2 (human) (Q13237 whole entry, looked up): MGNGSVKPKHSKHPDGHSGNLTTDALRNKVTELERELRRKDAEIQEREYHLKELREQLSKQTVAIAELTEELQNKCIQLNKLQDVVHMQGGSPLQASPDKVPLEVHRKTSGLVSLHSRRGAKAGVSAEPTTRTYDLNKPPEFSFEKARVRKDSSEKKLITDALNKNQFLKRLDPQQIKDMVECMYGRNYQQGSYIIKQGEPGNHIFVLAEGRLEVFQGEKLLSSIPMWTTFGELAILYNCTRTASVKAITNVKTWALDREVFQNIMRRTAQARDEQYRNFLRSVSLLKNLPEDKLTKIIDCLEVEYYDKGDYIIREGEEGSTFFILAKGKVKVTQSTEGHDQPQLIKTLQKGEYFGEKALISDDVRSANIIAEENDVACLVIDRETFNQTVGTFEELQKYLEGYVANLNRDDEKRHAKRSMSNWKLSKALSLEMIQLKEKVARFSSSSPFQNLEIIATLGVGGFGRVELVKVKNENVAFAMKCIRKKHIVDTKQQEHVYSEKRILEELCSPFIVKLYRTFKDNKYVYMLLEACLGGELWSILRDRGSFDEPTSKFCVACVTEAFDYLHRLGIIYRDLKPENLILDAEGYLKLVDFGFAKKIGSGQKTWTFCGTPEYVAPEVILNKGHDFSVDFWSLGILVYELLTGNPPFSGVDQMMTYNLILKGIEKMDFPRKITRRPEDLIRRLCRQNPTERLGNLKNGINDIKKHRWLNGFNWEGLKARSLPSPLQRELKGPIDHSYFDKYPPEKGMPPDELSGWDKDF

[6] = system: RET (human), P07949 [V804M]
STK35 (human) = STK35 (human) (UniProt Q8TDR2)
STK4 (human) = STK4 (human) (UniProt Q13043)
TLK2 (human) = TLK2 (human) (UniProt Q86UE8)
TNK2 (human) = TNK2 (human) (UniProt Q07912)
Sequence of TNK2 (human) (Q07912 whole entry, looked up): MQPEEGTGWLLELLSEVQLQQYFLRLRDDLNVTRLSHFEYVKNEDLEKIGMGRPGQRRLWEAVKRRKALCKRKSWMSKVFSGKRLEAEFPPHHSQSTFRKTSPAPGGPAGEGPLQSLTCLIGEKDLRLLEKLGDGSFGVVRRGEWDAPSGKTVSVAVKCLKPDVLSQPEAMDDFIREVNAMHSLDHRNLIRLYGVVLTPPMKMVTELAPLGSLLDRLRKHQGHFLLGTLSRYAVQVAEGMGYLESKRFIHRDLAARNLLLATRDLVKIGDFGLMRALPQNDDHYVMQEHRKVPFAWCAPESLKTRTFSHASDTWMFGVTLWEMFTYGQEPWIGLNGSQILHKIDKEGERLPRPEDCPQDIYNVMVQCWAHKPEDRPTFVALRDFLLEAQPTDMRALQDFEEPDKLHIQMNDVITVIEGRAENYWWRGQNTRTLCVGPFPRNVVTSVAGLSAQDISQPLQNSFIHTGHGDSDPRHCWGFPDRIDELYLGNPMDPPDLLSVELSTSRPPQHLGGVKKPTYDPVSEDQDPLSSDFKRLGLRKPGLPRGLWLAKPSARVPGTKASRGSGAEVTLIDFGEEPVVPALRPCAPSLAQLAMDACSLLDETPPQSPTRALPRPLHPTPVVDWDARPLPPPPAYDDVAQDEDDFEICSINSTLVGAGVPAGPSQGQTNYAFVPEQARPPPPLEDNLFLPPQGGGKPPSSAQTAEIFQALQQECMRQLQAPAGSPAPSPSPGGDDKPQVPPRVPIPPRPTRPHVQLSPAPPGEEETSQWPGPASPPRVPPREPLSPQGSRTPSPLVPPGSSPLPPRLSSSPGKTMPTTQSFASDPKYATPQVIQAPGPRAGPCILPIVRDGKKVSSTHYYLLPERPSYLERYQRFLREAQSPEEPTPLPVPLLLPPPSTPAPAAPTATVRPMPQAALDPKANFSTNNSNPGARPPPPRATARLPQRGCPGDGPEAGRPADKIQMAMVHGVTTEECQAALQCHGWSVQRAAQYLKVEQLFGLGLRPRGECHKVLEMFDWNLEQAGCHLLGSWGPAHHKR

YSK4 (human) = YSK4 (human) (UniProt Q56UN5)

Sequence of CDK14 (human) (O94921 whole entry, looked up): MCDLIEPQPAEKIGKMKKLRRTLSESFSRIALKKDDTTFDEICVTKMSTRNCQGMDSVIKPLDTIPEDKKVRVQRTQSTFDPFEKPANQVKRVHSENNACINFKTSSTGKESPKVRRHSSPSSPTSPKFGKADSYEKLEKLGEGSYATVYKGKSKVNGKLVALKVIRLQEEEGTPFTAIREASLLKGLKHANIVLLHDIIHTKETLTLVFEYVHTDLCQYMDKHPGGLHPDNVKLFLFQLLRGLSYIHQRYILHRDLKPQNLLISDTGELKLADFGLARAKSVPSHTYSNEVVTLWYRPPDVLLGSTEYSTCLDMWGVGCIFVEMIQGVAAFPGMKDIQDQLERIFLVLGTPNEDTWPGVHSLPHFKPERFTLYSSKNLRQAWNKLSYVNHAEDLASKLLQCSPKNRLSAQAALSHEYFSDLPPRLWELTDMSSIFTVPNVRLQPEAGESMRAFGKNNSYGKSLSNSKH

inhibition of binding (ACVR1B (human)): 3%
inhibition of binding (ACVRL1 (human)): 38%
inhibition of binding (ADCK4 (human)): 0%
inhibition of binding (AURKC (human)): 0%
inhibition of binding (CDK14 (human)): 27%
inhibition of binding (CHEK1 (human)): 1%
inhibition of binding (CHUK (human)): 29%
inhibition of binding (CSNK2A2 (human)): 2%
inhibition of binding (DAPK2 (human)): 13%
inhibition of binding (DYRK1A (human)): 11%
inhibition of binding [1]: 0%
inhibition of binding [2]: 35%
inhibition of binding (EPHA5 (human)): 0%
inhibition of binding (EPHA8 (human)): 0%
inhibition of binding (ERN1 (human)): 5%
inhibition of binding [3]: 2%
inhibition of binding (GAK (human)): 6%
inhibition of binding (GRK4 (human)): 0%
inhibition of binding (HIPK1 (human)): 0%
inhibition of binding (IKBKE (human)): 0%
inhibition of binding [4]: 0%
inhibition of binding (MAP3K9 (human)): 18%
inhibition of binding (MAP4K4 (human)): 9%
inhibition of binding (MAPK3 (human)): 1%
inhibition of binding (MAPK4 (human)): 0%
inhibition of binding (MAPKAPK5 (human)): 0%
inhibition of binding (MARK3 (human)): 0%
inhibition of binding (MATK (human)): 28%
inhibition of binding (MET (human)): 12%
inhibition of binding [5]: 0%
inhibition of binding (MKNK1 (human)): 0%
inhibition of binding (PIM2 (human)): 0%
inhibition of binding (PKMYT1 (human)): 0%
inhibition of binding (PRKG2 (human)): 0%
inhibition of binding [6]: 14%
inhibition of binding (STK35 (human)): 0%
inhibition of binding (STK4 (human)): 0%
inhibition of binding (TLK2 (human)): 13%
inhibition of binding (TNK2 (human)): 0%
inhibition of binding (YSK4 (human)): 21%
Structure (SMILES): Nc1cc(C(F)(F)F)c(-c2cc(N3CCOCC3)nc(N3CCOCC3)n2)cn1
